# Data: patent US20070021488A1, “Method for treating nervous system disorders and conditions” (Wyeth, priority 2005, published 2007)
# Values joined by “and” are separate entries in the source; they are usually repeats but may differ in a detail not shown here. Equal values may be shown once.
# Experiments:
# [1] = target: T1, human dopamine transporter (hDAT) (Homo sapiens, UniProt Q01959); assay: Dopamine transporter (hDAT) membrane binding assay
# T1 construct: purchased Perkin Elmer RBHDATM
# Experimental: (§1) MDCK-Net6 cells, stably transfected with human hNET [15] were cultured in growth medium containing high glucose DMEM (Gibco, Cat. No. 11995), 10% FBS (dialyzed, heat-inactivated, US Bio-Technologies, Lot FBD1129HI) and 500 μg/ml G418 (Gibco, Cat. No. 10131). Cells were plated at 300,000/T75 flask and cells were split twice weekly. The JAR cell line (human placental choriocarcinoma) was purchased from ATCC (Cat. No. HTB-144). The cells were cultured in growth medium containing RPMI 1640 (Gibco, Cat. No. 72400), 10% FBS (Irvine, Cat. No. 3000), 1% sodium pyruvate (Gibco, Cat. No. 1136) and 0.25% glucose. Cells were plated at 250,000 cells/T75 flask and split twice weekly. For cell based assays, cells were plated in Wallac 96-well sterile plates (Perkin Elmer, Cat. No. 3983498). For the human dopamine transporter (hDAT) binding assay, membranes from cells expressing recombinant hDAT are purchased from Perkin Elmer (Cat. No. RBHDATM, Lot#2227) and maintained at −80° C. until assay day.
# For each experiment, a data stream of cpm values collected from the Wallac Microbeta counter was downloaded to a Microsoft Excel statistical application program. Calculations of IC50/EC50 values were made using the transformed-both-sides logistic dose response program written by Wyeth Biometrics Department.
# [2] = test system: ovariectomized (OVX) rats; assay: Telemetry rat model of ovariectomy-induced thermoregulatory dysfunction (tail skin temperature); type: in vivo; conditions: 30 mg/kg, sc
# From the text: This model has been modified from a previously reported protocol describing estrogen regulation of diurnal tail skin temperature (TST) patterns (Berendsen, et al., European Journal of Pharmacology, 2001, 419(1): 47-54). […] A temperature and physical activity transmitter (PhysioTel TA10TA-F40, Data Sciences International) was implanted subcutaneously in the dorsal scapular region and the tip of the temperature probe was tunneled subcutaneously 2.5 cm beyond the base of the tail. After a 7-day recovery period, TST readings were continuously recorded for the remainder of the study. Tail skin temperature readings were collected from each animal every 5 minutes with values obtained over a 10 second sampling period. The day before test day, an average baseline TST value was calculated for each animal by averaging temperature readings recorded during the 12 hour active (dark) phase. […]
# Statistical analysis: Evaluation of a compound's ability to restore normal lowering of TST in the telemetry model was analyzed using hourly TST values calculated for each animal by averaging the 12 temperature readings obtained every 5 minutes over that recording time. […]
# The effect of test compound is measured by evaluating the following parameters in this model: onset of action, duration of effect on TST, maximal change in TST and mean change in TST over the duration of the compound effect.
# [3] = target: human norepinephrine transporter (hNET) (Homo sapiens, UniProt P23975); assay: cell-based
# Experimental: as §1
# On day 1, cells were plated at 3,000 cells/well in growth medium and maintained in a cell incubator (37° C., 5% CO2). […] The plates were counted in a Wallac Microbeta counter (PerkinElmer) to collect the raw cpm data. […]
# [4] = target: T2, human serotonin transporter (hSERT) (Homo sapiens, UniProt P31645); assay: Serotonin (5-HT) uptake assay in JAR cells; type: cell-based; conditions: [3H]5-HT uptake, read-out: hSERT function uptake (EC50 in nm)
# T2 construct: The methods for 5-HT functional reuptake using the JAR cell line; host or cells: JAR (human placental choriocarcinoma), staurosporine-stimulated
# Experimental: as §1
# The methods for 5-HT functional reuptake using the JAR cell line were modified using a previous literature report. On day 1, cells were plated at 15,000 cells/well in 96-well plates containing growth medium (RPMI 1640 with 10% FBS) and maintained in a cell incubator (37° C., 5% CO2). […] The plates were counted in a Wallac Microbeta counter (PerkinElmer) to collect the raw cpm data. […]
# [5] = test system: Spinal Nerve Ligation (SNL) Model of Neuropathic Pain; assay: Spinal Nerve Ligation (SNL) model of neuropathic pain, tactile hypersensitivity; type: in vivo, rat; conditions: 30 mg/kg IP, 30-300 minutes after administration, FIG. 7
# From the text: Subjects. Male Sprague-Dawley rats (Indianapolis, Ind.) weighing 150 to 200 g at time of arrival, were individually housed in wire cages in a climate-controlled room. A 12-hour light/dark cycle (lights on at 0630) was in effect, and food and water were available ad libitum.
# Surgery—Spinal Nerve Ligation. Rats were anesthetized with 3.5% halothane in O2 at 1 L/min and maintained with 1.5% halothane in O2 during surgery. Ligation of the L5 and L6 nerves was produced by an incision through the left paraspinal muscles. The left L5 and L6 spinal nerves were isolated adjacent to the vertebral column and ligated tightly with 6-0 silk suture just distal to the dorsal root ganglion. The wound was closed in layers using 4-0 silk suture and wound clips. Testing began 7 days after surgery.
# Assessment of tactile hypersensitivity. […] Baseline tactile sensitivity was assessed using a series of calibrated von Frey monofilaments (Stoelting; Wood Dale, Ill.) 0 to 3 days before surgery. […] The ability of a single dose of test compound to reverse established hypersensitivity was assessed using a time course procedure. […]
# Results are presented as the 50% threshold values (50% threshold in g force) estimated by the Dixon non-parametric test. […] Significant main effects were analyzed further by subsequent least significant difference analysis. […]
# T1 sequence (Q01959 whole entry): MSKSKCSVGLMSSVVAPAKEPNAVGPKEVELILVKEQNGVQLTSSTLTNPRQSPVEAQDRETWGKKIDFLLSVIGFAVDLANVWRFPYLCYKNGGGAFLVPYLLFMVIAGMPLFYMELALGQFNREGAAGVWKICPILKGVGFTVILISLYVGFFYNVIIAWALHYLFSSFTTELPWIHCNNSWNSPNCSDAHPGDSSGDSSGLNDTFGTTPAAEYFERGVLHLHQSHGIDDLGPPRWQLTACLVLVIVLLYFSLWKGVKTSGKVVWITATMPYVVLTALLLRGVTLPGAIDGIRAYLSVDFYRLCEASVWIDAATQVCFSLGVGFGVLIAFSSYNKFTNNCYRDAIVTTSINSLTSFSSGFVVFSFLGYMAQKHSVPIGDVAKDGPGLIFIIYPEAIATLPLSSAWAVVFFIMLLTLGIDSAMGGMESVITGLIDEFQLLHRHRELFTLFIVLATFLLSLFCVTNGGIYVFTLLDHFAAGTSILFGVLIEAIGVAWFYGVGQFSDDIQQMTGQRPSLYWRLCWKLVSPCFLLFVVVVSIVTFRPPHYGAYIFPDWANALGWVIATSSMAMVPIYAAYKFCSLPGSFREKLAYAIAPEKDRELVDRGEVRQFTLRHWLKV
# T2 sequence (P31645 whole entry): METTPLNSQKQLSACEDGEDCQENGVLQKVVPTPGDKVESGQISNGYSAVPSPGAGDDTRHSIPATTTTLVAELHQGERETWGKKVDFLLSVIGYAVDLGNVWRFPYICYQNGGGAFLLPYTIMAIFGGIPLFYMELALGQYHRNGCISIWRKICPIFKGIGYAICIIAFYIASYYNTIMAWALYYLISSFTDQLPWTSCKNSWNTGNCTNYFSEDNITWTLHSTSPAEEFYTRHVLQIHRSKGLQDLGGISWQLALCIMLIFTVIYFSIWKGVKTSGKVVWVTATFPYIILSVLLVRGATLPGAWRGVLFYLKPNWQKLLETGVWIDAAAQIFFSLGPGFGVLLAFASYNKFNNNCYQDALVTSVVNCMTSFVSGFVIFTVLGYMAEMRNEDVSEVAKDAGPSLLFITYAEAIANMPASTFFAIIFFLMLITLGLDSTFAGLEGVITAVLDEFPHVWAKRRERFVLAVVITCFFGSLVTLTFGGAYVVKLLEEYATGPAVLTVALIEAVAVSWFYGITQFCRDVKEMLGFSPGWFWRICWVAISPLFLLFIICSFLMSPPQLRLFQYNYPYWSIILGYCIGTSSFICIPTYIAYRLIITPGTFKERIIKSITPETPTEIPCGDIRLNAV
# human norepinephrine transporter (hNET), sequence (P23975 whole entry): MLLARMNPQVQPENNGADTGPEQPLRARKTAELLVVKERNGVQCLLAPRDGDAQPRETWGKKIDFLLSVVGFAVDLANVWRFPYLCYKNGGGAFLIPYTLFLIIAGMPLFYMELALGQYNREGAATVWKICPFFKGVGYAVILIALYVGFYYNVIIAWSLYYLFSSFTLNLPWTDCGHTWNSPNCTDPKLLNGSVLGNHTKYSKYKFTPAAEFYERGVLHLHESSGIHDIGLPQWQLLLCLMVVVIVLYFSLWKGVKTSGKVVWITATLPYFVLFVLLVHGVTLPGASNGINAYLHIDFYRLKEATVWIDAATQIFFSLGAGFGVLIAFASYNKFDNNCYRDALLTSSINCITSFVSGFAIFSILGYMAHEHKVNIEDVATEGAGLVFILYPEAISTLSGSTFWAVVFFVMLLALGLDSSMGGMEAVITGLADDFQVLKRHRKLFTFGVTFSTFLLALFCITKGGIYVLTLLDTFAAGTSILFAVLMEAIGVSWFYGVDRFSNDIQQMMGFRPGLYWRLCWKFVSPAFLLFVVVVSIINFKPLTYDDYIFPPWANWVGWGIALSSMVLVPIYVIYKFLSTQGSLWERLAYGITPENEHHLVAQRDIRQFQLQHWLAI
hDAT binding (% I at 10 μM) [1],EC50 [3] [µM],EC50 [4] [µM],hDAT binding (% I at 1 μM) ([1]; 1 μM) [% I],SMILES,Restoration of normal TST in OVX-induced thermoregulatory dysfunction telemetry model [2],Reversal of tactile allodynia in the SNL neuropathic pain model [5]
51 % I,0.148,7.35,–,"Cc1ccc([C@@]23CNC[C@@H]2C3)cc1 (single isomer, unassigned) [(+)-1-(4-methylphenyl)-3-azabicyclo[3.1.0]hexane]",restores normal TST,–
–,–,–,–,"Clc1ccc(C23CNCC2C3)cc1Cl (racemic) [Racemic 1-(3,4-dichlorophenyl)-3-azabicyclo[3.1.0]hexane, 1-(3,4-dichlorophenyl)-3-azabicyclo[3.1.0]hexane]",–,significantly reverses tactile allodynia
45 % I and 52.1 % I,–,–,26.5,"Cc1ccc(C23CNCC2C3)cc1 (racemic) [Racemic 1-(4-methylphenyl)-3-azabicyclo[3.1.0]hexane, 1-(4-methylphenyl)-3-azabicyclo[3.1.0]hexane]",restores normal TST,–
